Like-named read-outs stand apart in the source and are kept apart here.
Key:
[1] = Liver Microsome Stability Assay (human); settings: human liver microsomes, with NADPH, 1.0 uM compound
Description: (§2) Stability of a compound was assessed in the presence of liver microsomes from various sources—mouse, rat, monkey and human liver microsomes. 1.0 uM compound, 0.4% DMSO in 0.1 M Potassium Phosphate with 1.0 mg/mL liver microsomes, were incubated at 37° C. with or without 1 mM NADPH. The samples were quenched at 0, and 30 minutes.

[2] = Liver Microsome Stability Assay (mouse); settings: mouse liver microsomes, with NADPH, 1.0 uM compound
Description: as §2

[3] = Liver Microsome Stability Assay (monkey); settings: monkey liver microsomes, with NADPH, 1.0 uM compound
Description: as §2

[4] = Liver Microsome Stability Assay (rat); settings: rat liver microsomes, with NADPH, 1.0 uM compound
Description: as §2

[5] = test system: PD1-ss+10aa/Gaussia Luciferase; experiment: Dox-Induced PD1-ss-Gluc Assay; assay type: cell-based; settings: 24 hr Dox induction, 293FRT/TO cells, read-out: 24 hr Dox Inducible PD1ssGluc 293FRT/TO: Mean IC50
Excerpt: Flp-In 293 T-REx™ cells were transfected with pcDNA™5/FRT/TO plasmid inserted with cDNA encoding Gaussia Luciferase fused to the 3′ end of cDNA encoding PD1 signal sequence plus 10 amino acids (N-[…]-C) (SEQ ID NO: 1). Transfected cells were selected for resistance to the selectable markers Hygromycin and Blasticidin to create a stable cell line that contained the PD1-ss+10aa/Gaussia Luciferase cDNA insert whose expression was regulated under the T-REx™ system. The day before assay, cells were trypsinized and plated in 384-well tissue culture plates. The next day, compound dilutions in DMSO/media containing doxycycline were added to the wells and incubated at 37° C., 5% CO2.
(§1) For chemical structures that include one or more stereoisomers, but are illustrated without indicating stereochemistry, the assay data refers to a mixture of stereoisomers.

[6] = test system: IL-2-FL/Gaussia Luciferase; experiment: Dox Induced IL2-FL-Gluc Assay; assay type: cell-based; settings: for IC50: 24 hr Dox induction, 293FRT/TO cells, read-out: 24 hr Dox Inducible IL2FLGluc 293FRT/TO: Mean IC50; for 24 hr Dox Inducible IL2FLGluc 293FRT/TO: IL2/PD1: ratio of IL2FLGluc IC50 to PD1ssGluc IC50
Excerpt: Flp-In 293 T-REx™ cells were transfected with pcDNA™5/FRT/TO plasmid inserted with cDNA encoding Gaussia Luciferase fused to the 3′ end of cDNA encoding full length IL-2 (amino acids 1-153). Transfected cells were selected for resistance to the selectable markers Hygromycin and Blasticidin to create a stable cell line that contained the IL-2-FL/Gaussia Luciferase cDNA insert whose expression was regulated under the T-REx™ system. The day before assay, cells were trypsinized and plated in 384-well tissue culture plates. The next day, compound dilutions in DMSO/media containing doxycycline were added to the wells and incubated at 37° C., 5% CO2.
as §1

[7] = '<=>' given where both are I.A.

| Structure (SMILES) | Liver Microsome Stability (Multiple Species): Human - % Remaining after 30 min w/NADPH [1] | Liver Microsome Stability (Multiple Species): Mouse - % Remaining after 30 min w/NADPH [2] | Liver Microsome Stability (Multiple Species): Monkey - % Remaining after 30 min w/NADPH [3] | Liver Microsome Stability (Multiple Species): Rat - % Remaining after 30 min w/NADPH [4] | IC50 [5] | IC50 [6] | 24 hr Dox Inducible IL2FLGluc 293FRT/TO: IL2/PD1 [6] | IC50 ([5]; mean) | IC50 ([6]; mean) | 24 hr Dox Inducible IL2FLGluc 293FRT/TO: IL2/PD1 [6, 7] |
| --- | --- | --- | --- | --- | --- | --- | --- | --- | --- | --- |
| O=C(Nc1nc([C@H]2CCCN2c2ccc(OC3CCNCC3)cc2)cs1)c1cccn1Cc1ccncc1 [Compound A6, (R)-N-(4-(1-(4-(piperidin-4-yloxy)phenyl)pyrrolidin-2-yl)thiazol-2-yl)-1-(pyridin-4-ylmethyl)-1H-pyrrole-2-carboxamide] | 25.7% | 37.4% | 25.4% | 44.8% | – | – | – | – | – | – |
| CCc1ccc(N2CCC[C@@H]2c2csc(NC(=O)c3cccn3Cc3ccncc3)n2)cc1 [Compound A22, (R)-N-(4-(1-(4-ethylphenyl)pyrrolidin-2-yl)thiazol-2-yl)-1-(pyridin-4-ylmethyl)-1H-pyrrole-2-carboxamide] | 29.1% | 15.8% | 17.6% | 11.7% | – | – | – | – | – | – |
| CC(C)c1ccc(N2CCC[C@@H]2c2csc(NC(=O)c3cccn3Cc3ccncc3)n2)cc1 [Compound A23, (R)-N-(4-(1-(4-isopropylphenyl)pyrrolidin-2-yl)thiazol-2-yl)-1-(pyridin-4-ylmethyl)-1H-pyrrole-2-carboxamide] | 24.7% | 25.3% | 29.9% | 40.2% | – | – | – | – | – | – |
| O=C(Nc1nc([C@H]2CCCN2c2ccc(C3CC3)cc2)cs1)c1cccn1Cc1ccncc1 [Compound A24, (R)-N-(4-(1-(4-cyclopropylphenyl)pyrrolidin-2-yl)thiazol-2-yl)-1-(pyridin-4-ylmethyl)-1H-pyrrole-2-carboxamide] | 22.4% | 19.9% | 22.5% | 35.9% | – | – | – | – | – | – |
| O=C(Nc1nc([C@H]2CCCN2c2cnccn2)cs1)c1cccn1Cc1ccncc1 [Compound A30, (R)-N-(4-(1-(pyrazin-2-yl)pyrrolidin-2-yl)thiazol-2-yl)-1-(pyridin-4-ylmethyl)-1H-pyrrole-2-carboxamide] | 0.27% | 0.86% | 0.03% | 0.21% | – | – | – | – | – | – |
| O=C(Nc1nc([C@H]2CCCN2c2ncccn2)cs1)c1cccn1Cc1ccncc1 [Compound A32, (R)-1-(pyridin-4-ylmethyl)-N-(4-(1-(pyrimidin-2-yl)pyrrolidin-2-yl)thiazol-2-yl)-1H-pyrrole-2-carboxamide] | 0.24% | 0.17% | 0.05% | 0.55% | – | – | – | – | – | – |
| CC1=NC(/C=C/c2csc(NC(=O)c3cccn3Cc3ccncc3)n2)CO1 (stereo not drawn) [Compound B14] | 3.9% | 2.9% | 6.02% | 3.31% | – | – | – | – | – | – |
| CN1C(=O)OCC1/C=C/c1csc(NC(=O)c2cccn2Cc2ccncc2)n1 (stereo not drawn) [Compound B15, (E)-N-(4-(2-(3-methyl-2-oxooxazolidin-4-yl)vinyl)thiazol-2-yl)-1-(pyridin-4-ylmethyl)-1H-pyrrole-2-carboxamide] | 0.11% | 0.34% | 0.4% | 0.28% | – | – | – | – | – | – |
| CN1C(=O)CCCC1/C=C/c1csc(NC(=O)c2cccn2Cc2ccncc2)n1 (stereo not drawn) [Compound B19, (E)-N-(4-(2-(1-methyl-6-oxopiperidin-2-yl)vinyl)thiazol-2-yl)-1-(pyridin-4-ylmethyl)-1H-pyrrole-2-carboxamide] | 0.05% | 0.83% | 0.03% | 1.18% | – | – | – | – | – | – |
| Cn1ccnc1/C=C/c1csc(NC(=O)c2cccn2Cc2ccncc2)n1 [Compound B20, (E)-N-(4-(2-(1-methyl-1H-imidazol-2-yl)vinyl)thiazol-2-yl)-1-(pyridin-4-ylmethyl)-1H-pyrrole-2-carboxamide] | – | – | – | – | 5420 nM | > 25000 nM | >4.6 | – | – | – |
| N#CC[C@@H]1CC[C@H]1Cn1cccc1C(=O)Nc1nc([C@H]2CCCN2c2ccccc2)cs1 [Compound C18, 1-(((1R,2S)-2-(cyanomethyl)cyclobutyl)methyl)-N-(4-((R)-1-phenylpyrrolidin-2-yl)thiazol-2-yl)-1H-pyrrole-2-carboxamide] | 0.07% | 0.15% | 0.08% | 0.2% | – | – | – | – | – | – |
| N#CCC1(Cn2cccc2C(=O)Nc2nc([C@H]3CCCN3c3ccccc3)cs2)COC1 [Compound C19, (R)-1-((3-(cyanomethyl)oxetan-3-yl)methyl)-N-(4-(1-phenylpyrrolidin-2-yl)thiazol-2-yl)-1H-pyrrole-2-carboxamide] | 3.59% | 3.48% | 8.4% | 3.9% | – | – | – | – | – | – |
| CC(CC#N)Cn1cccc1C(=O)Nc1nc([C@H]2CCCN2c2ccccc2)cs1 (stereo partly drawn) [Compound C20, 1-(3-cyano-2-methylpropyl)-N-(4-((R)-1-phenylpyrrolidin-2-yl)thiazol-2-yl)-1H-pyrrole-2-carboxamide] | 15.3% | 4.75% | 15% | 10.6% | – | – | – | – | – | – |
| O=C(Nc1nc([C@H]2CCCN2c2ccccc2)cs1)c1cccn1CCCCc1cnn[nH]1 [Compound C26, (R)-1-(4-(1H-1,2,3-triazol-5-yl)butyl)-N-(4-(1-phenylpyrrolidin-2-yl)thiazol-2-yl)-1H-pyrrole-2-carboxamide] | – | – | – | – | – | – | – | 7970 nM | > 25000 nM | >3.1 |
| O=C(Nc1nc([C@H]2CCCN2c2ccccc2)cs1)c1cccn1Cc1ccncc1F [Compound E27, (R)-1-((3-fluoropyridin-4-yl)methyl)-N-(4-(1-phenylpyrrolidin-2-yl)thiazol-2-yl)-1H-pyrrole-2-carboxamide] | – | – | – | – | – | – | – | 17.5 nM | 56.8 nM | 3.2 |
| CC(C)c1cccc(/C=C/c2csc(NC(=O)c3cccn3Cc3ccncc3)n2)n1 [Compound E55, (E)-N-(4-(2-(6-isopropylpyridin-2-yl)vinyl)thiazol-2-yl)-1-(pyridin-4-ylmethyl)-1H-pyrrole-2-carboxamide] | – | – | – | – | – | – | – | 315 nM | 2980 nM | 9.5 |

— US20230286973A1, “PROTEIN SECRETION INHIBITORS” (KEZAR LIFE SCIENCES, priority 2020, published 2023)
